Patent US20210267944A1 (BioXcel Therapeutics, Inc., priority 2018, published 2021)
Structures can show the parent of a compound that is named as a salt. Where two headings read alike, the source gives them in different places.

Settings: for Diastolic blood pressure Mean ± SD / Diastolic blood pressure Median / Diastolic blood pressure Min / Heart rate Max / Heart rate Mean ± SD / Heart rate Median / Heart rate Min / Diastolic blood pressure Max / Systolic blood pressure, Max / Systolic blood pressure, Mean ± SD / Systolic blood pressure, Median / Systolic blood pressure, Min: opioid withdrawal patients
Source text: The participants were continuously monitored by the site personnel, including blood pressure and heart rate, from the start of the infusion through resolution of sedation and/or any adverse effects on blood pressure or heart rate. An electrocardiogram was obtained at screening, pre-infusion and upon resolution of sedation, a predetermined reduction in COWS or return to baseline.

[1] = Day-1, 30 min. post Infusion, n=11
[2] = Day-2, 30 min. post Infusion, n=5
[3] = opioid withdrawal, during infusion

Cc1cccc([C@H](C)c2cnc[nH]2)c1C [dexmedetomidine hydrochloride]
Diastolic blood pressure Mean ± SD (Day-2, 01:15 Hr): 78.5 ± 22.5 mm of Hg
Diastolic blood pressure Median (Day-2, 01:15 Hr): 78.5 mm of Hg
Diastolic blood pressure Min (Day-2, 01:15 Hr): 56 mm of Hg
Heart rate Max (Day-2, 01:15 Hr): 100 beats/minutes
Heart rate Mean ± SD (Day-2, 01:15 Hr): 88 ± 12 beats/minutes
Heart rate Median (Day-2, 01:15 Hr): 88 beats/minutes
Heart rate Min (Day-2, 01:15 Hr): 76 beats/minutes
Diastolic blood pressure Max (Day-2, 01:30 Hr): 75 mm of Hg
Diastolic blood pressure Mean ± SD (Day-2, 01:30 Hr): 75 mm of Hg
Diastolic blood pressure Median (Day-2, 01:30 Hr): 75 mm of Hg
Diastolic blood pressure Min (Day-2, 01:30 Hr): 75 mm of Hg
Heart rate Max (Day-2, 01:30 Hr): 73 beats/minutes
Heart rate Mean ± SD (Day-2, 01:30 Hr): 73 beats/minutes
Heart rate Median (Day-2, 01:30 Hr): 73 beats/minutes
Heart rate Min (Day-2, 01:30 Hr): 73 beats/minutes
Diastolic blood pressure Max (Day-2, 01:45 Hr): 89 mm of Hg
Diastolic blood pressure Mean ± SD (Day-2, 01:45 Hr): 89 mm of Hg
Diastolic blood pressure Median (Day-2, 01:45 Hr): 89 mm of Hg
Diastolic blood pressure Min (Day-2, 01:45 Hr): 89 mm of Hg
Heart rate Max (Day-2, 01:45 Hr): 92 beats/minutes
Heart rate Mean ± SD (Day-2, 01:45 Hr): 92 beats/minutes
Heart rate Median (Day-2, 01:45 Hr): 92 beats/minutes
Heart rate Min (Day-2, 01:45 Hr): 92 beats/minutes
Diastolic blood pressure Max (Day-2, 02:00 Hr): 90 mm of Hg
Diastolic blood pressure Mean ± SD (Day-2, 02:00 Hr): 90 mm of Hg
Diastolic blood pressure Median (Day-2, 02:00 Hr): 90 mm of Hg
Diastolic blood pressure Min (Day-2, 02:00 Hr): 90 mm of Hg
Heart rate Max (Day-2, 02:00 Hr): 94 beats/minutes
Heart rate Mean ± SD (Day-2, 02:00 Hr): 94 beats/minutes
Heart rate Median (Day-2, 02:00 Hr): 94 beats/minutes
Heart rate Min (Day-2, 02:00 Hr): 94 beats/minutes
Diastolic blood pressure Max (Day-2, 30 min. post Infusion): 98 mm of Hg
Diastolic blood pressure Mean ± SD (Day-2, 30 min. post Infusion): 84.4 ± 9.24 mm of Hg
Diastolic blood pressure Median (Day-2, 30 min. post Infusion): 86 mm of Hg
Diastolic blood pressure Min (Day-2, 30 min. post Infusion): 70 mm of Hg
Heart rate Max (Day-2, 30 min. post Infusion): 90 beats/minutes
Heart rate Mean ± SD (Day-2, 30 min. post Infusion): 70.8 ± 15.72 beats/minutes
Heart rate Median (Day-2, 30 min. post Infusion): 60 beats/minutes
Heart rate Min (Day-2, 30 min. post Infusion): 56 beats/minutes
all the vital signs values (opioid withdrawal): within clinically acceptable limits
Systolic blood pressure, Max (Day-1, 00:00 Hr, n=11): 178 mm of Hg
Systolic blood pressure, Mean ± SD (Day-1, 00:00 Hr, n=11): 134 ± 15.77 mm of Hg
Systolic blood pressure, Median (Day-1, 00:00 Hr, n=11): 127 mm of Hg
Systolic blood pressure, Min (Day-1, 00:00 Hr, n=11): 120 mm of Hg
Systolic blood pressure, Max (Day-1, 00:15 Hr, n=11): 157 mm of Hg
Systolic blood pressure, Mean ± SD (Day-1, 00:15 Hr, n=11): 129.73 ± 13.68 mm of Hg
Systolic blood pressure, Median (Day-1, 00:15 Hr, n=11): 127 mm of Hg
Systolic blood pressure, Min (Day-1, 00:15 Hr, n=11): 112 mm of Hg
Systolic blood pressure, Max (Day-1, 00:30 Hr, n=9): 160 mm of Hg
Systolic blood pressure, Mean ± SD (Day-1, 00:30 Hr, n=9): 124.78 ± 15.55 mm of Hg
Systolic blood pressure, Median (Day-1, 00:30 Hr, n=9): 128 mm of Hg
Systolic blood pressure, Min (Day-1, 00:30 Hr, n=9): 107 mm of Hg
Systolic blood pressure, Max (Day-1, 00:45 Hr, n=6): 125 mm of Hg
Systolic blood pressure, Mean ± SD (Day-1, 00:45 Hr, n=6): 113 ± 8.24 mm of Hg
Systolic blood pressure, Median (Day-1, 00:45 Hr, n=6): 114 mm of Hg
Systolic blood pressure, Min (Day-1, 00:45 Hr, n=6): 100 mm of Hg
Systolic blood pressure, Max (Day-1, 01:00 Hr, n=5): 120 mm of Hg
Systolic blood pressure, Mean ± SD (Day-1, 01:00 Hr, n=5): 114 ± 4.85 mm of Hg
Systolic blood pressure, Median (Day-1, 01:00 Hr, n=5): 115 mm of Hg
Systolic blood pressure, Min (Day-1, 01:00 Hr, n=5): 107 mm of Hg
Systolic blood pressure, Max (Day-1, 01:15 Hr, n=3): 112 mm of Hg
Systolic blood pressure, Mean ± SD (Day-1, 01:15 Hr, n=3): 110 ± 1.63 mm of Hg
Systolic blood pressure, Median (Day-1, 01:15 Hr, n=3): 110 mm of Hg
Systolic blood pressure, Min (Day-1, 01:15 Hr, n=3): 108 mm of Hg
Systolic blood pressure, Max (Day-1, 01:30 Hr, n=2): 112 mm of Hg
Systolic blood pressure, Mean ± SD (Day-1, 01:30 Hr, n=2): 106.5 ± 5.5 mm of Hg
Systolic blood pressure, Median (Day-1, 01:30 Hr, n=2): 106.5 mm of Hg
Systolic blood pressure, Min (Day-1, 01:30 Hr, n=2): 101 mm of Hg
Systolic blood pressure, Max [1]: 160 mm of Hg
Systolic blood pressure, Mean ± SD [1]: 130.91 ± 18.09 mm of Hg
Systolic blood pressure, Median [1]: 129 mm of Hg
Systolic blood pressure, Min [1]: 108 mm of Hg
Systolic blood pressure, Max (Day-1, Screening, n=11): 170 mm of Hg
Systolic blood pressure, Mean ± SD (Day-1, Screening, n=11): 130.36 ± 16.92 mm of Hg
Systolic blood pressure, Median (Day-1, Screening, n=11): 127 mm of Hg
Systolic blood pressure, Min (Day-1, Screening, n=11): 110 mm of Hg
Systolic blood pressure, Max (Day-2, 00:00 Hr, n=5): 141 mm of Hg
Systolic blood pressure, Mean ± SD (Day-2, 00:00 Hr, n=5): 127.2 ± 11.37 mm of Hg
Systolic blood pressure, Median (Day-2, 00:00 Hr, n=5): 133 mm of Hg
Systolic blood pressure, Min (Day-2, 00:00 Hr, n=5): 109 mm of Hg
Systolic blood pressure, Max (Day-2, 00:15 Hr, n=5): 139 mm of Hg
Systolic blood pressure, Mean ± SD (Day-2, 00:15 Hr, n=5): 123.6 ± 13.41 mm of Hg
Systolic blood pressure, Median (Day-2, 00:15 Hr, n=5): 131 mm of Hg
Systolic blood pressure, Min (Day-2, 00:15 Hr, n=5): 103 mm of Hg
Systolic blood pressure, Max (Day-2, 00:30 Hr, n=5): 137 mm of Hg
Systolic blood pressure, Mean ± SD (Day-2, 00:30 Hr, n=5): 121.6 ± 12.15 mm of Hg
Systolic blood pressure, Median (Day-2, 00:30 Hr, n=5): 125 mm of Hg
Systolic blood pressure, Min (Day-2, 00:30 Hr, n=5): 106 mm of Hg
Systolic blood pressure, Max (Day-2, 00:45 Hr, n=4): 131 mm of Hg
Systolic blood pressure, Mean ± SD (Day-2, 00:45 Hr, n=4): 123.15 ± 9.17 mm of Hg
Systolic blood pressure, Median (Day-2, 00:45 Hr, n=4): 128 mm of Hg
Systolic blood pressure, Min (Day-2, 00:45 Hr, n=4): 108 mm of Hg
Systolic blood pressure, Max (Day-2, 01:00 Hr, n=3): 132 mm of Hg
Systolic blood pressure, Mean ± SD (Day-2, 01:00 Hr, n=3): 124.33 ± 9.46 mm of Hg
Systolic blood pressure, Median (Day-2, 01:00 Hr, n=3): 130 mm of Hg
Systolic blood pressure, Min (Day-2, 01:00 Hr, n=3): 111 mm of Hg
Systolic blood pressure, Max (Day-2, 01:15 Hr, n=2): 130 mm of Hg
Systolic blood pressure, Mean ± SD (Day-2, 01:15 Hr, n=2): 115.5 ± 14.5 mm of Hg
Systolic blood pressure, Median (Day-2, 01:15 Hr, n=2): 115.5 mm of Hg
Systolic blood pressure, Min (Day-2, 01:15 Hr, n=2): 101 mm of Hg
Systolic blood pressure, Mean ± SD (Day-2, 01:30 Hr, n=1): 114 mm of Hg
Systolic blood pressure, Median (Day-2, 01:30 Hr, n=1): 114 mm of Hg
Systolic blood pressure, Mean ± SD (Day-2, 01:45 Hr, n=1): 112 mm of Hg
Systolic blood pressure, Median (Day-2, 01:45 Hr, n=1): 112 mm of Hg
Systolic blood pressure, Mean ± SD (Day-2, 02:00 Hr, n=1): 114 mm of Hg
Systolic blood pressure, Median (Day-2, 02:00 Hr, n=1): 114 mm of Hg
Systolic blood pressure, Max [2]: 146 mm of Hg
Systolic blood pressure, Mean ± SD [2]: 127.6 ± 13.1 mm of Hg
Systolic blood pressure, Median [2]: 130 mm of Hg
Systolic blood pressure, Min [2]: 110 mm of Hg
Diastolic blood pressure mean values, in words [3]: within clinically acceptable limits
Heart rate mean values, in words [3]: within clinically acceptable limits
Systolic blood pressure mean values, in words [3]: within clinically acceptable limits
heart rate at which stopping criteria was met (opioid withdrawal, one patient, after 15 minutes): ≤ 50
